Source: US8906908B2, “Hydroxybupropion analogues for treating drug dependence” (priority 2010, dated 2014)
Like-named read-outs stand apart in the source and are kept apart here.

How the values were obtained:
[1] = system: Male Institute of Cancer Research (ICR) mice; assay: Hot-plate test, blockade of nicotine-induced antinociception; format: in vivo; details: pretreatment 15 min before nicotine 2.5 mg/kg s.c., tested 5 min after nicotine
Excerpt: (§1) Animals: Male Institute of Cancer Research (ICR) mice (weighing 20-25 g) obtained from Harlan (Indianapolis, Ind.) were used throughout the study. Animals were housed in an Association for Assessment and Accreditation of Laboratory Animal Care-approved facility, were placed in groups of six, and had free access to food and water. Studies were approved by the Institutional Animal Care and Use Committee of Virginia Commonwealth University.
Hot-Plate Test: Mice were placed into a 10-cm wide glass cylinder on a hot plate (Thermojust Apparatus) maintained at 55° C. for assessment of pain responses mediated at supraspinal levels. To minimize tissue damage, a maximum exposure to the hot plate 40 s was imposed. Measures of control latencies (time until the animal jumped or licked its paws; typically 8-12 s) were done twice for stimuli applied at least 10 min apart for each mouse. Antinociceptive responses after test drug administrations were determined and calculated as the % MPE, where % MPE=[(test latency in s−control latency in s)/(40 s−control latency in s)×100]. Groups of 8 to 12 animals were used for each drug condition. […] The animals were then tested 5 min after administration of a subcutaneous dose of 2.5 mg/kg nicotine.

NE transporters [h(NET)] = target: T1, NE transporters [h(NET)] (Homo sapiens, UniProt P23975); assay: Inhibition of [3H]norepinephrine uptake into HEK293 cells stably expressing hNET; format: cell-based; details: for selectivity for inhibition of NE over DA uptake: ratio of uptake IC50 values
T1 construct: expressed in transfected cells; host or cells: HEK-293
Excerpt: (§2) Cell Lines and Culture: Human embryonic kidney (HEK-293) cells stably expressing human DAT, NET or SERT were maintained as previously described in Eshleman, A. J.; Carmolli, M.; Cumbay, M.; Martens, C. R.; Neve, K. A.; Janowsky, A., J. Pharmacol. Exp. Ther. 1999, 289, (2), 877-885. Use was made of several human cell lines that naturally or heterologously express specific, functional, human nAChR subtypes. Cells of the TE671/RD line naturally expresses muscle-type nAChR (a1β1γδ- or α1*-nAChR), and SH-SY5Y neuroblastoma cells naturally expresses autonomic α3β4*-nAChRs (containing α3, β4, probably α5, and sometimes β2 subunits). Different clones of SH-EP1 epithelial cell lines have been engineered to heterologously express either α4β2-nAChR, which are thought to be the most abundant, high affinity nicotine-binding nAChR in mammalian brain, or α4β4-nAChR, another possible brain nAChR subtype (SH-EP1-hα4β2 or α4β4 cells, respectively). These cells were maintained as low passage number (1-26 from our frozen stocks) cultures to ensure stable expression of native or heterologously-expressed nAChR as previously described (see Lukas, R. J.; Fryer, J. D.; Eaton, J. B.; L., G. C., Some methods for studies of nicotinic acetylcholine receptor pharmacology, in Nicotinic receptors and the Nervous System, Levine, E. D., Ed. CRC Press: Boca Raton, 2002; pp 3-27, incorporated herein by reference in its entirety). Cells were passaged once weekly by splitting just-confluent cultures 1/300 (TE671/RD), 1/5 (SH-SY5Y), or 1/20 (transfected SH-EP1) in serum-supplemented medium to maintain log-phase growth.
See, for example, Damaj, M. I.; Carroll, F. I.; Eaton, J. B.; Navarro, H. A.; Blough, B. E.; Mirza, S.; Lukas, R. J.; Martin, B. R., Mol. Pharmacol. 2004, 66, (3), 675-682 and Eshleman, A. J.; Carmolli, M.; Cumbay, M.; Martens, C. R.; Neve, K. A.; Janowsky, A., J. Pharmacol. Exp. Ther. 1999, 289, (2), 877-885, both incorporated by reference herein in their entireties.

[2] = system: Male Institute of Cancer Research (ICR) mice; assay: Locomotor activity, antagonism of nicotine effect; format: in vivo; details: for AD50 Locomotion: pretreatment 15 min before nicotine […] s.c.
Excerpt: as §1
Locomotor Activity: Mice were placed into individual Omnitech photocell activity cages (28×16.5 cm; Omnitech Electronics, Columbus, Ohio) 5 min after subcutaneous administration of either 0.9% saline or nicotine (1.5 mg/kg). Interruptions of the photocell beams (two banks of eight cells each) were then recorded for the next 10 min. Data were expressed as the number of photocell interruptions.

[3] = target: T2, muscle-type nAChR (α1β1γδ- or α1*-nAChR) (Homo sapiens, UniProt P02708+P07510+P11230+Q07001); assay: 86Rb+ efflux nAChR functional assay, TE671/RD cells; format: cell-based; details: parentheses = S.E.M. as multiplication/division factor
T2 construct: Cells of the TE671/RD line naturally expresses muscle-type nAChR; endogenous in cells; host or cells: TE671/RD cells
Excerpt: as §2
After cells had adhered (generally overnight, but no sooner than 4 h later), the medium was removed and replaced with 250 μL per well of complete medium supplemented with ˜350,000 cpm of ^86Rb^+ (PerkinElmer Life and Analytical Sciences, Boston, Mass.) and counted at 40% efficiency using Cerenkov counting (TriCarb 1900 liquid scintillation analyzer[…]; PerkinElmer Life Sciences).
After at least 4 h and typically overnight, ^86Rb^+ efflux was measured using the “flip-plate” technique. See Lukas, R. J.; Fryer, J. D.; Eaton, J. B.; L., G. C., Some methods for studies of nicotinic acetylcholine receptor pharmacology, in Nicotinic receptors and the Nervous System, Levine, E. D., Ed. CRC Press: Boca Raton, 2002; pp 3-27, incorporated herein by reference in its entirety). Briefly, after aspiration of the bulk of ^86Rb^+ loading medium from each well of the “cell plate,” each well containing cells was rinsed 3× with 2 mL of fresh ^86Rb^+ efflux buffer (130 mM NaCl, 5.4 mM KCl, 2 mM CaCl2, 5 mM glucose, 50 mM HEPES, pH 7.4) to remove extracellular ^86Rb^+. Following removal of residual rinse buffer by aspiration, the flip-plate technique was used again to simultaneously introduce 1.5 mL of fresh efflux buffer containing drugs of choice at indicated final concentrations from a 24-well “efflux/drug plate” into the wells of the cell plate. After a 5 min incubation, the solution was “flipped” back into the efflux/drug plate, and any remaining buffer in the cell plate was removed by aspiration. Cells remaining in the cell plate were lysed and suspended by addition of 1.5 mL of 0.1 M NaOH, 0.1% sodium dodecyl sulfate to each well.
Similarly, the sum of ^86Rb^+ in cell plates and efflux/drug plates also determined the efficiency of ^86Rb^+ loading (the percentage of applied ^86Rb^+ actually loaded into cells).
Specific efflux was then taken as the difference in control samples between total and non-specific ^86Rb^+ efflux. Any intrinsic agonist activity of test drugs was ascertained using samples containing test drug only at different concentrations and was normalized, after subtraction of non-specific efflux, to specific efflux in test drug-free, control samples.

[4] = HEK293-hNET, mean ± standard error of three independent experiments, read-out: monoamine uptake inhibition IC50 [3H]NE
[5] = EC80-EC90 carbamylcholine, read-out: nAChR inhibition IC50 α1*β1
[6] = nAChR inhibition IC50 α1*β1, EC80-EC90 carbamylcholine

T1 sequence (P23975 whole entry): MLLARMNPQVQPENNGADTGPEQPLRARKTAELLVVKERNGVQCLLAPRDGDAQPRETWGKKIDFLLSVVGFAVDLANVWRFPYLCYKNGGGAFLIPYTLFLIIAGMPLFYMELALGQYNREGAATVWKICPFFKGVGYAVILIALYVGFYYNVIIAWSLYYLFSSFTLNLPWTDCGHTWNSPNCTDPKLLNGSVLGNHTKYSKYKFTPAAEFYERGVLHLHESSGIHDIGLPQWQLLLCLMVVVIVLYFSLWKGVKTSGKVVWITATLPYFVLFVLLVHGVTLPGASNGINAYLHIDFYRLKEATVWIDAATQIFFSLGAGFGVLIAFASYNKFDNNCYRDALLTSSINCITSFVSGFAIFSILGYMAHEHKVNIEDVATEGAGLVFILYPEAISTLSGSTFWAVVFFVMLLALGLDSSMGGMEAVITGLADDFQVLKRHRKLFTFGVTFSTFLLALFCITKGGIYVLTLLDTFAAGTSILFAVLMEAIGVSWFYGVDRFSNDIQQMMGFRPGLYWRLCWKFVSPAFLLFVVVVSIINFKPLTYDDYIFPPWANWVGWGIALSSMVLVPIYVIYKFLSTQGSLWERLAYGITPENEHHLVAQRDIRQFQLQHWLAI
T2 sequence (P02708 21-457): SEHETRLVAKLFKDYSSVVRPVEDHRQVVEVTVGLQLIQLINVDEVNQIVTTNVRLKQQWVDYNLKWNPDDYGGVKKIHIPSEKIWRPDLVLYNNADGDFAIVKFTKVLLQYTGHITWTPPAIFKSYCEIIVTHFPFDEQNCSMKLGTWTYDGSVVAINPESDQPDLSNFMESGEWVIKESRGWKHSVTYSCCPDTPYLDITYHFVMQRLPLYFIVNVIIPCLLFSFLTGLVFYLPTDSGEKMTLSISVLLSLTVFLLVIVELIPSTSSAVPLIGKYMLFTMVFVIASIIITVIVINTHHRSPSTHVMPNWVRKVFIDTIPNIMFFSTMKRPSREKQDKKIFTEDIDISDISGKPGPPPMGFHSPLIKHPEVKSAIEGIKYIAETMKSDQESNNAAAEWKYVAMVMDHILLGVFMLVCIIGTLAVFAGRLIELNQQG
T2 sequence (P11230 24-501): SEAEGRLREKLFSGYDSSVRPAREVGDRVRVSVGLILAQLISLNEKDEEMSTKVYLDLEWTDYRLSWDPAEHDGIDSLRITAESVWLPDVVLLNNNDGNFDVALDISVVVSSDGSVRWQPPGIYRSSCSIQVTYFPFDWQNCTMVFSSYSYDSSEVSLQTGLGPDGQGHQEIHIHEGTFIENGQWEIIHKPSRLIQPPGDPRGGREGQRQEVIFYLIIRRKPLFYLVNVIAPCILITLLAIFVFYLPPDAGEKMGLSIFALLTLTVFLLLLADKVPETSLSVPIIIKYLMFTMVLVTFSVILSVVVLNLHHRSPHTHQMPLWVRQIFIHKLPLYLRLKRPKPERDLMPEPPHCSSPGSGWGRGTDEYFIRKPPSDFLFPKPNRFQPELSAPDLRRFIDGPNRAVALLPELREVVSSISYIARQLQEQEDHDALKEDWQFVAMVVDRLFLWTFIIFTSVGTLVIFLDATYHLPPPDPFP
T2 sequence (P07510 23-517): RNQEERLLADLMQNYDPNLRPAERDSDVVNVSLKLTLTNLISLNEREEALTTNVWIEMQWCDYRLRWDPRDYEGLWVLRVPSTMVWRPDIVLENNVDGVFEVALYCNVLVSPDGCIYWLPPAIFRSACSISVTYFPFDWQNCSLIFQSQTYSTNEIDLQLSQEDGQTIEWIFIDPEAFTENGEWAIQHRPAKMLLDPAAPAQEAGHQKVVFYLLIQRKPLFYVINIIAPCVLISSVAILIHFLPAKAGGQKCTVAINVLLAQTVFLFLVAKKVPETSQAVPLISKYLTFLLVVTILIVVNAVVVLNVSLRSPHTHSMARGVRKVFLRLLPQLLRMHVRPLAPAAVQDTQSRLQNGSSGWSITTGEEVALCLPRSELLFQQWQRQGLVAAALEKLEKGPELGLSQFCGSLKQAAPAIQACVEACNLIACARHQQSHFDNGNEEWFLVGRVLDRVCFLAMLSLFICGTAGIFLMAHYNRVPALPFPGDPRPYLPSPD
T2 sequence (Q07001 22-517): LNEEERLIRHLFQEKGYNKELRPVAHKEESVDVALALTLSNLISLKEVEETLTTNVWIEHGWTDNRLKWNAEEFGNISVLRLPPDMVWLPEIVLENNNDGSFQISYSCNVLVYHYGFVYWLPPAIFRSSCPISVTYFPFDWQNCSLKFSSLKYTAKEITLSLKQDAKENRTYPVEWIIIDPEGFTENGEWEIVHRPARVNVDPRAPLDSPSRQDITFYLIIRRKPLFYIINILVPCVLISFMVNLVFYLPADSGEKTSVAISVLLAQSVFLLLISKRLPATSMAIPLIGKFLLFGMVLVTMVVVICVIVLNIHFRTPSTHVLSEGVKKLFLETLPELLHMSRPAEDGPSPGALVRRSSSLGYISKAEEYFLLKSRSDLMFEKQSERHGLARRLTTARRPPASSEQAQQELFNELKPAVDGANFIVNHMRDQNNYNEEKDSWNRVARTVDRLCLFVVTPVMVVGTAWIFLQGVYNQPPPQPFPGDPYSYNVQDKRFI

| Structure (SMILES) | AD50 Hot-plate [1] | IC50 (NE transporters [h(NET)]; [4]) [µM] | selectivity for inhibition of NE over DA uptake (NE transporters [h(NET)]) [fold] | AD50 Locomotion [2] | IC50 [3, 5] [µM] | IC50 [3, 6] [µM] | selectivity for inhibition of NE uptake over α3β4*-nAChR function (NE transporters [h(NET)]) [fold] | ED50 ([2]; Mus musculus, pretreatment 15 min before nicotine 1.5 mg/kg s.c., read-out: AD50 Locomotion) [mg/kg] | IC50 (NE transporters [h(NET)]) [µM] | selectivity for inhibition of NE uptake over α4β2-nAChR function (NE transporters [h(NET)]) [fold] |
| --- | --- | --- | --- | --- | --- | --- | --- | --- | --- | --- |
| COc1cccc([C@]2(O)OCC(C)(C)N[C@H]2C)c1 [Compound 4f, (2S,3S)-2-(3-Methoxyphenyl)-3,5,5-trimethylmorpholin-2-ol] | IA (IA: AD50 > 15 mg/kg) | 3 ± 0.9 | 5 | IA (IA: AD50 > 15 mg/kg) | 49 | – | – | – | – | – |
| C[C@@H]1N(C)C(C)(C)CO[C@@]1(O)c1cccc(Cl)c1 [Compound 4u, (2S,3S)-2-(3-Chlorophenyl)-3,4,5,5-tetramethylmorpholin-2-ol] | IA (IA: AD50 > 15 mg/kg) | 0.415 ± 0.009 | – | IA (IA: AD50 > 15 mg/kg) | 57 | > 33 | – | – | – | – |
| C[C@@H]1NC(C)(C)CO[C@@]1(O)c1ccc(Cl)cc1 [Compound 4i, (2S,3S)-2-(4-Chlorophenyl)-3,5,5-trimethylmorpholin-2-ol] | IA (IA: AD50 > 15 mg/kg) | 0.83 ± 0.09 | – | IA (IA: AD50 > 15 mg/kg) | 19 | – | – | – | – | – |
| CC1NC(C)(C)COC1(O)c1cc(Cl)cc(Cl)c1 (racemic) [Compound 4p, 2-(3,5-Dichlorophenyl)-3,5,5-trimethylmorpholin-2-ol] | IA (IA: AD50 > 15 mg/kg) | 2.44 ± 0.73 | – | – | – | 7.2 | 1.6 | 1.9 | – | – |
| C[C@@H]1NC(C)(C)CO[C@@]1(O)c1cccc([N+](=O)[O-])c1 [Compound 4g, (2S,3S)-2-(3-Nitrophenyl)-3,5,5-trimethylmorpholin-2-ol] | IA (IA: AD50 > 15 mg/kg) | 1.21 ± 0.34 | 10 | IA (IA: AD50 > 15 mg/kg) | 96 | – | – | – | – | – |
| COc1ccc([C@]2(O)OCC(C)(C)N[C@H]2C)cc1 [Compound 4k, (2S,3S)-2-(4-Methoxyphenyl)-3,5,5-trimethylmorpholin-2-ol] | IA (IA: AD50 > 15 mg/kg) | > 10 | – | IA (IA: AD50 > 15 mg/kg) | 25 | – | – | – | – | – |
| C[C@@H]1NC(C)(C)CO[C@@]1(O)c1ccc(F)cc1 [Compound 4h, (2S,3S)-2-(4-Fluorophenyl)-3,5,5-trimethylmorpholin-2-ol] | IA (IA: AD50 > 15 mg/kg) | 3.8 ± 0.6 | – | IA (IA: AD50 > 15 mg/kg) | 69 | – | – | – | – | – |
| Cc1cccc([C@]2(O)OCC(C)(C)N[C@H]2C)c1 [Compound 4e, (2S,3S)-2-(m-Tolyl)-3,5,5-trimethylmorpholin-2-ol] | – | 1.13 ± 0.02 | – | IA (IA: AD50 > 15 mg/kg) | 33 | > 33 | – | – | – | – |
| C[C@@H]1N(C)C(C)(C)CO[C@@]1(O)c1ccc(Cl)cc1 [Compound 4v, (2S,3S)-2-(4-Chlorophenyl)-3,4,5,5-tetramethylmorpholin-2-ol] | IA (IA: AD50 > 15 mg/kg) | 0.527 ± 0.104 | – | IA (IA: AD50 > 15 mg/kg) | 43 | > 33 | – | – | – | – |
| C[C@@H]1NC(C)(C)CO[C@@]1(O)c1ccccc1 [Compound 4b, (2S,3S)-2-Phenyl-3,5,5-trimethylmorpholin-2-ol] | IA (IA: AD50 > 15 mg/kg) | 0.55 ± 0.09 | – | IA (IA: AD50 > 15 mg/kg) | – | > 100 | – | – | – | – |
| CC1NC(C)(C)COC1(O)c1ccc(Cl)c(Cl)c1 (racemic) [Compound 4n, 2-(3,4-Dichlorophenyl)-3,5,5-trimethylmorpholin-2-ol] | IA (IA: AD50 > 15 mg/kg) | – | – | IA (IA: AD50 > 15 mg/kg) | – | 7.2 | ~23 | – | 0.114 | – |
| C[C@@H]1NC(C)(C)CO[C@@]1(O)c1cc(F)cc(F)c1 [Compound 4o, (2S,3S)-2-(3,5-Difluorophenyl)-3,5,5-trimethylmorpholin-2-ol] | IA (IA: AD50 > 15 mg/kg) | 0.151 ± 0.043 | – | IA (IA: AD50 > 15 mg/kg) | 23 | – | – | – | – | 42 |
| C[C@@H]1NC(C)(C)CO[C@@]1(O)c1cccc(F)c1 [Compound 4c, (2S,3S)-2-(3-Fluorophenyl)-3,5,5-trimethylmorpholin-2-ol] | – | 0.74 ± 0.15 | – | IA (IA: AD50 > 15 mg/kg) | – | > 100 | – | – | – | – |
